Results on three compounds are retold here after US20050059645A1, “Methods for the treatment of male and female sexual dysfunction” (priority 2003, published 2005).

Where two headings read alike, the source gives them in different places.

Series [1] has as its system ovariectomized female rats. As to the kind of experiment: Lordosis behavior test (lordosis quotient) in ovariectomized female rats. The series is classed as in vivo, rat. As for the experimental part: Thus, lordosis was selected as an indicator of restoration of female sexual function in ovariectomized female rats and an appropriate indicator for alleviating symptoms of female sexual dysfunction.
Adult female Sprague Dawley rats (220-250 g) from Charles River Hungary Ltd., Godollo, Hungary, were used. Animals were kept in community cages (4 animals/cage) in a climate-controlled room (23±2° C., 50-60% humidity), with a 14 hour light, 10 hour dark cycle of artificial lighting, using reversed light/dark cycle. Food and water were available ad libitum.
After a minimum five-day acclimatization period, animals were ovariectomized under ether anesthesia, then were left to recover for 3 weeks before testing (reconvalescence). All animals were treated in accordance with the guidelines of the European Communities Council Directive (86/609/EEC) and studies were permitted by the Institutional Animal Care Commission.
Estradiol benzoate and progesterone were obtained from Sigma Chemical Co. Inc., Budapest, Hungary. […] E2-CDS as a 3% complex with HPβCD (E2-CDS-CD) was dissolved in distilled water and diluted with 27% HPβCD solution. E2-CDS-CD was synthesized by Alchem Laboratories Corporation, Alachua, Fla., US.
(§1) After recovery from surgery, ovariectomized female rats were divided into four groups and treated once a day for five days intravenously, via a bolus injection through the tail vein, as follows: (1) control, 27% HPβCD solution; (2) 0.003 mg/kg E2-CDS dissolved in 27% HPβCD solution; (3) 0.01 mg/kg E2-CDS dissolved in 27% HPβCD solution; and (4) 0.03 mg/kg E2-CDS dissolved in 27% HPβCD solution. A minimal number of ovariectomized (8 to 12) females were used per group. Intravenous treatments either with E2-CDS or HPβCD (controls) were carried out daily for 5 days beginning 2 days prior to the first day of behavior observations, in a volume of 0.05 ml/100 g body weight.
The behavior test was conducted in a plexiglass observation cage during the dark cycle. During behavioral observations, only a dim red light was on.
An experienced and active male rat was placed in the arena 5 minutes prior to the female. […] The lordosis quotient (LQ) expresses the estrogen effect on sexual receptivity and was calculated as follows: LQ=100×number of lordoses/10 mounts The observation of the sexual behavior of each female was carried out, in the case of E2-CDS, every day for 22 days; in the case of EB, investigations were carried out every day for 10 days. […] Citrated blood samples were taken by retro-orbital sinus puncture under light ether anesthesia. The samples were stored at 4° C. for one hour, then centrifuged at 1000 g for 10 minutes. Plasma was separated and stored at −80° C. until assayed. Plasma LH concentrations from individual samples were measured by double antibody radioimmunoassay kits obtained from Amersham Pharmacia Biotech, Rome, Italy. […] The limit of detection was 15 pg/ml.
Behavioral changes were analyzed using the Mann-Whitney U test (Siegel, Nonparametric Statistics for the Behavioral Sciences, New York; McGraw-Hill Book Company, Inc., 1956). The Fisher exact test was used for percentage comparisons (Zar, Biostatistical Analysis, Prentice Hall, Inc., Englewood Cliffs, N.J., 1974). Serum LH data were analyzed for each time and treatment group by analysis of variance (ANOVA) followed by Bonferroni posthoc test.

Another series has as its system LH. As to the kind of experiment: Plasma LH by radioimmunoassay in ovariectomized female rats. The following applies: 0.003, 0.01 and 0.03 mg/kg i.v. daily for 5 days. The series is classed as in vivo, rat. The protocol:
as §1
An experienced and active male rat was placed in the arena 5 minutes prior to the female. […] The lordosis quotient (LQ) expresses the estrogen effect on sexual receptivity and was calculated as follows: LQ=100×number of lordoses/10 mounts The observation of the sexual behavior of each female was carried out, in the case of E2-CDS, every day for 22 days; in the case of EB, investigations were carried out every day for 10 days. […] Citrated blood samples were taken by retro-orbital sinus puncture under light ether anesthesia. […] Plasma LH concentrations from individual samples were measured by double antibody radioimmunoassay kits obtained from Amersham Pharmacia Biotech, Rome, Italy. […]

Another series relates to castrated male rats. The following applies: cited from earlier work.
The conditions of series [2]: estradiol itself, postmenopausal volunteer; cited from earlier work.
For series [3] the following is noted: cited from earlier work.
The mark [4] stands for this setting: 0.01 mg/kg i.v. once a day for 5 days.
The mark [5] stands for this setting: 0.03 mg/kg i.v. once a day for 5 days.

On to `C[C@]12CC[C@@H]3c4ccc(OC(=O)c5ccccc5)cc4CC[C@H]3[C@@H]1CC[C@@H]2O` [estradiol benzoate], for which, in series [1] (0.003 mg/kg i.v. once a day for 5 days), the “lordosis quotient, effect” value was “slightly enhanced the lordosis quotient, but these effects were not statistically significant”. For the same compound, in series [1] (setting [4]), the “LQ increase compared to E2-CDS” value is “about 3 times less”; the “lordosis quotient LQ, effect” value was “slightly increased the LQ from day 3 to day 10”; the “statistical significance of LQ increase” value was “not statistically significant”. Further, in series [1] (setting [5]), the “LQ value relative to E2-CDS” value was “about three times lower”; the “duration of LQ enhancement” value is on record as “from day 3 to day 8”; the “lordosis quotient LQ, effect” value is “significantly enhanced”. Besides, the “plasma LH levels, effect” value in the series with LH is “none of the tested dosages of estradiol benzoate gave statistically significant LH suppression”. Moreover, the masculine sexual behavior result in the series on castrated male rats (10 μg/day systemically for 9 to 11 days (Pfaff 1970)) is “increased mounting, intromissions and ano-genital sniffing and reduced mounting latency”. Also, the ejaculations result in the series with castrated male rats (100 μg/day for 24 to 28 days (Sodersten 1973)) was “less affected by estradiol benzoate then by testosterone propionate”. In addition, the mounts and intromissions entry with castrated male rats (100 μg/day for 24 to 28 days, rats castrated 6 weeks previously (Sodersten 1973)) is reported as “equivalent to those observed following similar treatment with testosterone propionate”.
With `C[C@]12CC[C@@H]3c4ccc(O)cc4CC[C@H]3[C@@H]1CC[C@@H]2O` [estradiol], in series [2], the “initial serum estradiol level” value was “too high to calculate with the standard curve”.
On to `C[C@]12CC[C@H]3[C@@H](CCC4=CC(=O)CC[C@@]43C)[C@@H]1CC[C@@H]2O` [testosterone], for which the “estradiol formed (of recovered steroids)” value is given as 64% in series [3] (amygdala (Michael 1986)), 61% in series [3] (hypothalamus (Michael 1986)) and 43% in series [3] (preoptic area (Michael 1986)). Moreover, the “radioactivity reported to be estradiol” value in series [3] (hypothalamus, preoptic area and amygdala (Bonsall 1983)) is on record as not below 50%.
